Organism: Rattus norvegicus
Experiment: Open TG-GATES - Regimen: Daily Repeat
Format: toxicity, organism-based, Sprague-Dawley
Design: regimen Daily Repeat, gender Male, age 6 weeks
Settings: in vivo, po, 100 mg/kg, route gavage, dose level Low; for APTT / Bas / Eos / Fbg / Hb / Ht / Lym / MCH / MCHC / MCV / Mono / Neu / PT / Plat / RBC / Ret / WBC: tissue Blood; for KIDNEY_L / KIDNEY_R / KIDNEY_TOTAL: tissue Kidney; for LIVER: tissue Liver; for A/G / ALP / ALT / AST / BUN / CRE / Ca / Cl / DBIL / GLC / IP / K / LDH / Na / PL / RALB / TBIL / TC / TG / TP / gamma-GTP: tissue Plasma

## CCN1CCCC1CNC(=O)c1cc(S(N)(=O)=O)ccc1OC (configuration not stated) [SULPIRIDE]
72 h, time 3 day
  TERMINAL_BW: 231.2 g
  APTT: 17.2 s
  Bas: 0%
  Eos: 1%
  Fbg: 274.6 mg/dL
  Hb: 13.6 g/dL
  Ht: 41.3%
  Lym: 74.8%
  MCH: 20.9 pg
  MCHC: 32.8%
  MCV: 63.7 fL
  Mono: 3%
  Neu: 20.8%
  PT: 13.2 s
  Plat: 122 x10_4/uL
  RBC: 649.2 x10_4/ul
  Ret: 6.5%
  WBC: 95.3 x10_2/uL
  KIDNEY_L: 1 g
  KIDNEY_R: 1 g
  KIDNEY_TOTAL: 2 g
  LIVER: 10.7 g
  A/G: 0.9
  ALP: 1543 IU/L
  ALT: 42.4 IU/L
  AST: 66.4 IU/L
  BUN: 13.6 mg/dL
  CRE: 0.2 mg/dL
  Ca: 11 mg/dL
  Cl: 105.2 meq/L
  DBIL: 0.01 mg/dL
  GLC: 186.8 mg/dL
  IP: 7.4 mg/dL
  K: 4.2 meq/L
  LDH: 70.4 IU/L
  Na: 141 meq/L
  PL: 142.2 mg/dL
  RALB: 2.6 g/dL
  TBIL: 0.058 mg/dL
  TC: 72 mg/dL
  TG: 106.6 mg/dL
  TP: 5.6 g/dL
  gamma-GTP: 1 IU/L
[…], time 7 day
  TERMINAL_BW: 265 g
  APTT: 19.5 s
  Bas: 0.6%
  Eos: 1.2%
  Fbg: 289.6 mg/dL
  Hb: 14 g/dL
  Ht: 42.1%
  Lym: 80%
  MCH: 20.5 pg
  MCHC: 33.2%
  MCV: 61.9 fL
  Mono: 2.8%
  Neu: 14.6%
  PT: 13.1 s
  Plat: 123.5 x10_4/uL
  RBC: 681.6 x10_4/ul
  Ret: 5.3%
  WBC: 106.6 x10_2/uL
  KIDNEY_L: 1.1 g
  KIDNEY_R: 1.1 g
  KIDNEY_TOTAL: 2.2 g
  LIVER: 12.9 g
  A/G: 0.9
  ALP: 1433 IU/L
  ALT: 45.4 IU/L
  AST: 66.6 IU/L
  BUN: 14.8 mg/dL
  CRE: 0.2 mg/dL
  Ca: 10.7 mg/dL
  Cl: 105.6 meq/L
  DBIL: 0.008 mg/dL
  GLC: 175.2 mg/dL
  IP: 7.5 mg/dL
  K: 4.4 meq/L
  LDH: 64.2 IU/L
  Na: 141.8 meq/L
  PL: 145.2 mg/dL
  RALB: 2.6 g/dL
  TBIL: 0.056 mg/dL
  TC: 70.4 mg/dL
  TG: 116.4 mg/dL
  TP: 5.6 g/dL
  gamma-GTP: 1 IU/L
[…], time 14 day
  TERMINAL_BW: 328.7 g
  APTT: 20.6 s
  Bas: 0%
  Eos: 1%
  Fbg: 286 mg/dL
  Hb: 14.6 g/dL
  Ht: 44%
  Lym: 75.2%
  MCH: 20.6 pg
  MCHC: 33.2%
  MCV: 62.1 fL
  Mono: 3%
  Neu: 20%
  PT: 13.1 s
  Plat: 121.3 x10_4/uL
  RBC: 708 x10_4/ul
  Ret: 4.5%
  WBC: 97.2 x10_2/uL
  KIDNEY_L: 1.2 g
  KIDNEY_R: 1.2 g
  KIDNEY_TOTAL: 2.4 g
  LIVER: 14.2 g
  A/G: 0.9
  ALP: 1376.8 IU/L
  ALT: 38.8 IU/L
  AST: 68.5 IU/L
  BUN: 15.8 mg/dL
  CRE: 0.2 mg/dL
  Ca: 11 mg/dL
  Cl: 104.5 meq/L
  DBIL: 0.015 mg/dL
  GLC: 197 mg/dL
  IP: 7.6 mg/dL
  K: 3.9 meq/L
  LDH: 73.5 IU/L
  Na: 141.2 meq/L
  PL: 145.5 mg/dL
  RALB: 2.7 g/dL
  TBIL: 0.06 mg/dL
  TC: 67.5 mg/dL
  TG: 149 mg/dL
  TP: 5.8 g/dL
  gamma-GTP: 1 IU/L
[…], time 28 day
  TERMINAL_BW: 377.8 g
  APTT: 19.8 s
  Bas: 0%
  Eos: 1.2%
  Fbg: 274.2 mg/dL
  Hb: 16 g/dL
  Ht: 46.9%
  Lym: 76.2%
  MCH: 19.8 pg
  MCHC: 34.2%
  MCV: 57.7 fL
  Mono: 1.8%
  Neu: 19.8%
  PT: 13 s
  Plat: 110.8 x10_4/uL
  RBC: 812.6 x10_4/ul
  Ret: 2.2%
  WBC: 95.5 x10_2/uL
  KIDNEY_L: 1.2 g
  KIDNEY_R: 1.2 g
  KIDNEY_TOTAL: 2.5 g
  LIVER: 14.4 g
  A/G: 0.8
  ALP: 981.6 IU/L
  ALT: 36 IU/L
  AST: 65.6 IU/L
  BUN: 17.2 mg/dL
  CRE: 0.3 mg/dL
  Ca: 10.5 mg/dL
  Cl: 105.2 meq/L
  DBIL: 0.008 mg/dL
  GLC: 178 mg/dL
  IP: 6.4 mg/dL
  K: 3.8 meq/L
  LDH: 173.6 IU/L
  Na: 142.6 meq/L
  PL: 136 mg/dL
  RALB: 2.8 g/dL
  TBIL: 0.068 mg/dL
  TC: 63 mg/dL
  TG: 112 mg/dL
  TP: 6.2 g/dL
  gamma-GTP: 1 IU/L

— ChEMBL document CHEMBL3885861, “Open TG-GATES”
